# Measured values: patent US9926293B2, “Multivalent RAS binding compounds” (THE TRUSTEES OF COLUMBIA UNIVERSITY IN THE CITY OF NEW YORK, priority 2014, dated 2018)
# Read-outs that look alike come from different tables or passages of the source.
# How the values were obtained:
# GppNHp-loaded KRASG12D = target: T1, GppNHp-loaded KRASG12D (Homo sapiens, UniProt P01116, G12D); experiment: Microscale thermophoresis, lysine NT-647-labeled GppNHp-loaded KRAS^G12D; type: binding; conditions: read-out: dissociation constant KD
# T1 construct: made in house; host or cells: Escherichia coli BL21-Gold (DE3)
# Method: Microscale Thermophoresis
# KRAS^G12D (250 μM) in 25 mM HEPES, 100 mM sodium chloride, 2 mM TCEP with 20 mM EDTA and 1 mM GppNHp was shaken at 220 rpm at 30° C. to remove the endogenous nucleotide, The solution was placed on ice for 2 minutes prior to the addition of 65 mM MgCl2. After an additional 10 minutes incubation on ice, 200 uL of a 10 uM solution of KRAS^G12D was combined with 200 uL of a 20 uM solution of NT-647-NHS-ester dye (from a 652.4 μM stock). The protein/dye mixture was rotated at 4° C. for 30 minutes, before being separated from the excess dye and buffer exchanged into 25 mM Tris, 100 mM sodium chloride, 2 mM TCEP, and 5 mM MgCl2 via a nap-5 column. The test compounds were arrayed across a 16-point dilution series consisting of 1.5% DMSO with 25 mM Tris, 100 mM NaCl, 2 mM TCEP, 5 mM MgCl2 and 0.05% tween-20. Thermophoretic movement of the fluorescently labeled protein with the inhibitors was performed using a Monolith NT.115 (Nanotemper Technologies). RALA and RHOA were purchased commercially from Abcam (RALA CN:ab102555, RHOA CN:ab101594).
# In another set of experiments, the top D38-A59 two-site multivalent compounds were evaluated by a RAS pulldown using the RAS binding domain of CRAF (the top two hits are shown in FIG. 14D). This abrogation of binding between RAS and its effector protein was also evident in the RAS-RALGDS interaction (FIG. 14E). To quantify the binding of the two-site compounds to RAS, MST was performed again using lysine NT-647-labeled, GppNHp-loaded KRAS^G12D. […] The third (Y32) site was extended into (compound 34MEW95) using this scaffold.
# Docking scores and dissociation constants for binding to GppNHp-bound KRAS^G12D (PDB:4DSN) were measured as set forth above for additional 2- and 3-site compounds by microscale thermophoresis.
# [1] = tested on: MDA-MB-231 cell line (KRAS^G13D); experiment: Multicellular tumor spheroids in low adherence plates; type: cell-based; conditions: 72 hours; for size of multicellular tumor spheroids: low-adherence plates
# Method: Multicellular Tumor Spheroids
# Multicellular tumor spheroids (MCTSs) were grown in 96-well Corningware Ultra Low Attachment (ULA) Plates (CLS 3474). 100 μL of cell suspension containing 2×10^4 cells/ml were added to each well of the ULA plate containing 100 μL of a 2× solution of the desired concentration of compounds. Cells were incubated at 37° C., 5% CO2 for 72 hours to allow for MCTS formation. After 72 hours, 50 μL of a 50% solution of Alamar blue and medium was added and incubated for 12 hours prior to measurements on a Victor3 plate reader as previously described.
# [2] = tested on: caspases 3 and 7 in HT-1080 (NRAS^Q61K) cells; experiment: Caspase 3/7 activation assay; type: cell-based; conditions: staurosporine 5 μM, 24 hours
# Method: Caspase 3/7 Activation Assay
# HT-1080 cells were seeded into 384-well plates at 1,000 cells/well. After 12-16 hours, compounds (as 50 mM stocks in DMSO) were arrayed in a dilution series in 384-well polypropylene plates. Compound solutions were transferred at a 1:5 dilution into the assay plates for a total volume of 40 μL. After 24 hours, 8 μL of a 1:100 solution of rhodamine 110 bis-(N-CBZ-1-aspartyl-1-glutamyl-1-valyl-aspartic acid amide) to lysis buffer (APO-1, Promega) was added and the plate was wrapped in aluminum foil and incubated at room temperature for 16 hours. Fluorescence intensity was then determined using a Victor3 plate reader (Perkin Elmer) with a 490 nm excitation filter and a 535 nm emission filter. A viability curve was performed in parallel with the same incubation time using the procedure described in the “cell viability assays” section.
# [3] = Aqueous solubility as noted during MST; type: physicochemical; conditions: noted in MST buffer
# [4] = tested on: phosphorylated AKT in BJeLR cells; experiment: Western blot of phosphorylated AKT; type: cell-based; conditions: 2 μM and 8 μM, 24 hours, serum free
# Method: FIG. 21A-FIG. 21B show BJeLR cells were treated as described in FIG. 19A-FIG. 19B and the lysate was subjected to detection of phosphorylated AKT ([…]) and total AKT by western blotting (FIG. 21A).
# BJeLR cells were seeded in 60 mm dishes at 1 million cells/dish in media containing DMEM and 10% FBS with 1% penicillin and streptomycin (PS), 12-16 hours prior to use. The medium was then aspirated and compounds added as solutions in serum free medium (DMEM with 1% PS) to the dishes and treated for 24 hours or at the indicated time points. Following treatment, the medium was aspirated from each dish and cells were washed twice with PBS. […] Antibodies for pERK1/2, ERK1/2, pAKT ser473, AKT, pan-RAS, RALA, PI3Kgamma (Cell signaling), and RAF-1 (Santa Cruz) were detected using a goat anti-rabbit or goat anti-mouse IgG antibody conjugated to an IRdye at 800CW and 680CW conjugated, respectively (Li-COR biosciences).
# [5] = 31MEW44 5 μM, 34MEW43 10 μM, 34MEW95 5 μM
# T1 sequence (P01116 1-169 isoform P01116-2 G12D): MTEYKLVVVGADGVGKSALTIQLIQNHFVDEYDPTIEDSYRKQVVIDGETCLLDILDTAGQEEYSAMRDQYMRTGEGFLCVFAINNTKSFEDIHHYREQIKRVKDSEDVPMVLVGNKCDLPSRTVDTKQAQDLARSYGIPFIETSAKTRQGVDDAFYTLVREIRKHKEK
Kd (GppNHp-loaded KRASG12D) [µM],SMILES,"Kd (GppNHp-loaded KRASG12D; MST, GppNHp-loaded KRAS^G12D, 34MEW43 and 34MEW95 estimated, no full dose-response curve) [µM]",effect on three dimensional multicellular spheroids ([1]; 20 μM),size of multicellular tumor spheroids [1],"fluorescence of caspase 3/7 substrate [2, 5]",fluorescence of caspase 3/7 substrate ([2]; 31MEW44 2.5 and 5 μM),aqueous solubility [3],phosphorylated AKT [4]
,"NC1(C(=O)NCCCn2cc(-c3ccc(OC(F)(F)F)cc3)c3cc(CN4CCN(Cc5c(Cl)cccc5Cl)CC4)ccc32)CCNCC1 [Compound 31MEW44, 4-amino-N-(3-(5-((4-(2,6-dichlorobenzyl)piperazin-1-yl)methyl)-3-(4-(trifluoromethoxy)phenyl)-1H-indol-1-yl)propyl)piperidine-4-carboxamide]",9,killed,decreased in size in a dose-dependent manner,Increased fluorescence,Increased fluorescence,more soluble,dose-dependent decrease in phosphorylated AKT
73,"NC1(C(=O)NCCCn2cc(-c3cccc(F)c3)c3c(CN4CCN(CCOc5ccc(Cl)cc5)CC4)cccc32)CCNCC1 [Compound 34MEW43, 4-amino-N-(3-(4-((4-(2-(4-chlorophenoxy)ethyl)piperazin-1-yl)methyl)-3-(3-fluorophenyl)-1H-indol-1-yl)propyl)piperidine-4-carboxamide]",,,decreased in size in a dose-dependent manner,Increased fluorescence,,low aqueous solubility,dose-dependent decrease in phosphorylated AKT
